± gives the expanded uncertainty stated by the source.
Experiment: xn = mol fraction of the nth substance listed
Details: 303.15 K, Liquid; for speed of sound: Frequency=3 MHz, Pulse-echo method; for mass density: Vibrating tube method

## CCCCCCCCCCCC [dodecane] + O=C=O
10000 kPa, x2 = 0
  speed of sound: 1318.5 ± 1.8 m/s
  mass density: 748.5 ± 0.8 kg/m3
10000 kPa, x2 = 0.2032
  speed of sound: 1245.6 ± 1.7 m/s
10000 kPa, x2 = 0.3989
  speed of sound: 1152.2 ± 1.3 m/s
10000 kPa, x2 = 0.6007
  speed of sound: 1011.6 ± 1.5 m/s
10000 kPa, x2 = 0.7498
  speed of sound: 845.5 ± 1.5 m/s
10000 kPa, x2 = 0.8528
  speed of sound: 680.5 ± 1.6 m/s
10000 kPa, x2 = 0.205
  mass density: 756.3 ± 0.7 kg/m3
10000 kPa, x2 = 0.4
  mass density: 767.4 ± 0.6 kg/m3
10000 kPa, x2 = 0.6008
  mass density: 784.3 ± 0.6 kg/m3
10000 kPa, x2 = 0.7497
  mass density: 802.5 ± 0.6 kg/m3
10000 kPa, x2 = 0.853
  mass density: 815.6 ± 0.5 kg/m3
10000 kPa, x2 = 0.9348
  mass density: 817.8 ± 0.6 kg/m3
10000 kPa, x2 = 0.9771
  mass density: 801 ± 1.1 kg/m3
10000 kPa, x2 = 0.9877
  mass density: 790.6 ± 1.4 kg/m3
20000 kPa, x2 = 0
  speed of sound: 1372.4 ± 1.8 m/s
  mass density: 755.1 ± 0.9 kg/m3
20000 kPa, x2 = 0.2032
  speed of sound: 1304.1 ± 1.7 m/s
20000 kPa, x2 = 0.3989
  speed of sound: 1214.9 ± 1.5 m/s
20000 kPa, x2 = 0.6007
  speed of sound: 1084.4 ± 1.4 m/s
20000 kPa, x2 = 0.7498
  speed of sound: 937 ± 1.4 m/s
20000 kPa, x2 = 0.8528
  speed of sound: 800.1 ± 1.5 m/s
20000 kPa, x2 = 0.205
  mass density: 763.6 ± 0.8 kg/m3
20000 kPa, x2 = 0.4
  mass density: 776.3 ± 0.7 kg/m3
20000 kPa, x2 = 0.6008
  mass density: 796.3 ± 0.7 kg/m3
20000 kPa, x2 = 0.7497
  mass density: 820.5 ± 0.6 kg/m3
20000 kPa, x2 = 0.853
  mass density: 844.1 ± 0.6 kg/m3
20000 kPa, x2 = 0.9348
  mass density: 868.5 ± 0.5 kg/m3
20000 kPa, x2 = 0.9771
  mass density: 883.1 ± 0.6 kg/m3
20000 kPa, x2 = 0.9877
  mass density: 887.1 ± 0.6 kg/m3
30000 kPa, x2 = 0
  speed of sound: 1421.4 ± 1.8 m/s
  mass density: 761.3 ± 1 kg/m3
30000 kPa, x2 = 0.2032
  speed of sound: 1356.4 ± 1.8 m/s
30000 kPa, x2 = 0.3989
  speed of sound: 1272 ± 1.6 m/s
30000 kPa, x2 = 0.6007
  speed of sound: 1147.4 ± 1.4 m/s
30000 kPa, x2 = 0.7498
  speed of sound: 1010.4 ± 1.4 m/s
30000 kPa, x2 = 0.8528
  speed of sound: 885.8 ± 1.5 m/s
30000 kPa, x2 = 0.205
  mass density: 770.5 ± 0.9 kg/m3
30000 kPa, x2 = 0.4
  mass density: 784.3 ± 0.8 kg/m3
30000 kPa, x2 = 0.6008
  mass density: 806.8 ± 0.7 kg/m3
30000 kPa, x2 = 0.7497
  mass density: 835.2 ± 0.6 kg/m3
30000 kPa, x2 = 0.853
  mass density: 865.6 ± 0.6 kg/m3
30000 kPa, x2 = 0.9348
  mass density: 902.4 ± 0.6 kg/m3
30000 kPa, x2 = 0.9771
  mass density: 929.5 ± 0.6 kg/m3
30000 kPa, x2 = 0.9877
  mass density: 937.7 ± 0.7 kg/m3
40000 kPa, x2 = 0
  speed of sound: 1468.5 ± 1.9 m/s
  mass density: 766.9 ± 1 kg/m3
40000 kPa, x2 = 0.2032
  speed of sound: 1404.4 ± 1.7 m/s
40000 kPa, x2 = 0.3989
  speed of sound: 1323 ± 1.6 m/s
40000 kPa, x2 = 0.6007
  speed of sound: 1204.4 ± 1.5 m/s
40000 kPa, x2 = 0.7498
  speed of sound: 1073.3 ± 1.4 m/s
40000 kPa, x2 = 0.8528
  speed of sound: 955.4 ± 1.4 m/s
40000 kPa, x2 = 0.205
  mass density: 776.8 ± 0.9 kg/m3
40000 kPa, x2 = 0.4
  mass density: 791.6 ± 0.8 kg/m3
40000 kPa, x2 = 0.6008
  mass density: 816 ± 0.7 kg/m3
40000 kPa, x2 = 0.7497
  mass density: 847.6 ± 0.6 kg/m3
40000 kPa, x2 = 0.853
  mass density: 883.1 ± 0.7 kg/m3
40000 kPa, x2 = 0.9348
  mass density: 928.1 ± 0.6 kg/m3
40000 kPa, x2 = 0.9771
  mass density: 963.1 ± 0.6 kg/m3
40000 kPa, x2 = 0.9877
  mass density: 973.9 ± 0.7 kg/m3
50000 kPa, x2 = 0
  speed of sound: 1512.3 ± 1.9 m/s
  mass density: 772 ± 1 kg/m3
50000 kPa, x2 = 0.2032
  speed of sound: 1449.9 ± 1.8 m/s
50000 kPa, x2 = 0.3989
  speed of sound: 1370.3 ± 1.6 m/s
50000 kPa, x2 = 0.6007
  speed of sound: 1256 ± 1.5 m/s
50000 kPa, x2 = 0.7498
  speed of sound: 1128.9 ± 1.4 m/s
50000 kPa, x2 = 0.8528
  speed of sound: 1015.3 ± 1.4 m/s
50000 kPa, x2 = 0.205
  mass density: 782.5 ± 1 kg/m3
50000 kPa, x2 = 0.4
  mass density: 798.2 ± 0.9 kg/m3
50000 kPa, x2 = 0.6008
  mass density: 824.4 ± 0.8 kg/m3
50000 kPa, x2 = 0.7497
  mass density: 858.7 ± 0.6 kg/m3
50000 kPa, x2 = 0.853
  mass density: 898.1 ± 0.7 kg/m3
50000 kPa, x2 = 0.9348
  mass density: 950.3 ± 0.6 kg/m3
50000 kPa, x2 = 0.9771
  mass density: 990.1 ± 0.7 kg/m3
50000 kPa, x2 = 0.9877
  mass density: 1002.9 ± 0.8 kg/m3
60000 kPa, x2 = 0
  speed of sound: 1553.7 ± 1.9 m/s
  mass density: 776.8 ± 1.1 kg/m3
60000 kPa, x2 = 0.2032
  speed of sound: 1492.5 ± 1.8 m/s
60000 kPa, x2 = 0.3989
  speed of sound: 1414.9 ± 1.6 m/s
60000 kPa, x2 = 0.6007
  speed of sound: 1303.2 ± 1.5 m/s
60000 kPa, x2 = 0.7498
  speed of sound: 1179.5 ± 1.4 m/s
60000 kPa, x2 = 0.8528
  speed of sound: 1068.3 ± 1.4 m/s
60000 kPa, x2 = 0.205
  mass density: 787.9 ± 1 kg/m3
60000 kPa, x2 = 0.4
  mass density: 804.4 ± 0.9 kg/m3
60000 kPa, x2 = 0.6008
  mass density: 832.1 ± 0.8 kg/m3
60000 kPa, x2 = 0.7497
  mass density: 868.7 ± 0.7 kg/m3
60000 kPa, x2 = 0.853
  mass density: 911.4 ± 0.8 kg/m3
60000 kPa, x2 = 0.9348
  mass density: 967.4 ± 0.7 kg/m3
60000 kPa, x2 = 0.9771
  mass density: 1012.8 ± 0.7 kg/m3
60000 kPa, x2 = 0.9877
  mass density: 1027.1 ± 0.8 kg/m3
70000 kPa, x2 = 0
  speed of sound: 1593.3 ± 2 m/s
  mass density: 781.4 ± 1.1 kg/m3
70000 kPa, x2 = 0.2032
  speed of sound: 1532.6 ± 1.8 m/s
70000 kPa, x2 = 0.3989
  speed of sound: 1456.7 ± 1.7 m/s
70000 kPa, x2 = 0.6007
  speed of sound: 1346.4 ± 1.5 m/s
70000 kPa, x2 = 0.7498
  speed of sound: 1225.4 ± 1.4 m/s
70000 kPa, x2 = 0.8528
  speed of sound: 1116.7 ± 1.5 m/s
70000 kPa, x2 = 0.205
  mass density: 793.2 ± 1 kg/m3
70000 kPa, x2 = 0.4
  mass density: 810.2 ± 0.9 kg/m3
70000 kPa, x2 = 0.6008
  mass density: 839.3 ± 0.8 kg/m3
70000 kPa, x2 = 0.7497
  mass density: 878 ± 0.8 kg/m3
70000 kPa, x2 = 0.853
  mass density: 923.3 ± 0.8 kg/m3
70000 kPa, x2 = 0.9348
  mass density: 983.5 ± 0.7 kg/m3
70000 kPa, x2 = 0.9771
  mass density: 1032.6 ± 0.8 kg/m3
70000 kPa, x2 = 0.9877
  mass density: 1048.1 ± 0.8 kg/m3

Reference: the NIST ThermoML archive (doi:10.1021/acs.jced.9b00311)
